The series can be described thus: Phase 1 crossover pharmacokinetic study of tablet and capsule formulations, single oral dose. The series is classed as in vivo, human. The settings on record: male, human, plasma, oral; for AUC(0-t): read-out: AUC0-24. The protocol:
Certain formulations provided herein were evaluated in a Phase 1, open-label, randomized, crossover study.
On Day 1 of Period 1, following an overnight fast of at least 8 hours, subjects were randomized to one of the following 3 sequences to receive Treatment A, B or C (Table 30).
In Treatment A, one 20-mg reference Compound A API-in-capsule was administered orally after at least 8 hour fast with 240 mL of non-carbonated, room temperature water. In Treatment B, one 20-mg tablet of Compound A (Tablet Formulation XIII) was administered under fasted conditions. In Treatment C, four 5-mg tablets of Compound A (Tablet Formulation XIV) were administered under fasted conditions. The 20-mg tablet and four 5-mg tablets were administered orally after at least 8 hour fast with 240 mL of non-carbonated, room temperature water.
For each period, serial blood samples were collected before dosing (zero hour) and at 0.5, 1, 1.5, 2, 2.5, 3, 4, 6, 8, 12, 24, 48, 72, and 96 hours after dosing. Plasma concentrations of Compound A were determined for determining PK parameters, such as […], AUC0-∞, Cmax, Tmax, t1/2, CL/F, and Vz/F for Compound A. Plasma PK parameters were calculated using non compartmental methods. Analyses of variance (ANOVA) were performed on the natural log-transformed AUC0-t, AUC0-∞, and Cmax for Compound A. The geometric mean ratios (test/reference) and their 90% confidence intervals were also calculated. For Tmax, non parametric analysis was used to produce median differences.

The mark [1] stands for this setting: upon administration of about 20 mg of Compound A (protocol of Section 6.5.1).
Where [2] appears, read: Treatment A: one 20-mg Compound A API-in-capsule, fasted, n = 18, geometric mean.

The values below come from US9403829B2, “Pharmaceutical compositions of 7-(6-(2-hydroxypropan-2-yl)pyridin-3-yl)-1-((trans)-4-methoxycyclohexyl)-3,4-dihydropyrazino [2,3-b]pyrazin-2(1H)-one, a solid form thereof and methods of their use” (Signal Pharmaceuticals, LLC, priority 2011, dated 2016).

Each structure is given as a SMILES string. Where two headings read alike, the source gives them in different places.

Turning to `CC(C)(O)c1ccc(-c2cnc3c(n2)N([C@H]2CC[C@H](O)CC2)C(=O)CN3)cn1` [O-Desmethyl metabolite, 1-((1r,4r)-4-hydroxycyclohexyl)-7-(6-(2-hydroxypropan-2-yl)pyridin-3-yl)-3,4-dihydropyrazino[2,3-b]pyrazin-2(1H)-one], the Cmax (as a rule, the maximum level reached in the sampled fluid or tissue) under setting [1] was 503 ng/mL and the maximum concentration (Cmax) under setting [2] was 503 ng/mL. For the same compound, the Tmax – broadly, the time at which the peak concentration occurs – was 3 h under setting [1] and 3 h (Treatment A: one 20-mg Compound A API-in-capsule, fasted, healthy adult males, n = 18, median). Further, the half-life (in general, the time in which the quantity being followed falls by half) runs as follows: under setting [1], 14.3 h; under setting [2], 14.3 h. Besides, the AUC(0-t) runs as follows: under setting [1], 7480 ng·h/mL; under setting [2], 7480 ng·h/mL. The AUC(0-inf) is, setting by setting: (upon administration of about 20 mg of Compound A (protocol of Section 6.5.1), read-out: AUC∞) 11900 ng·h/mL; (Treatment A: one 20-mg Compound A API-in-capsule, fasted, n = 18, geometric mean, read-out: AUC0-∞) 11900 ng·h/mL.
